We go through ten compounds from patent publication US20110009628A1, “Compounds and Compositions for Modulating Lipid Levels and Methods of Preparing Same” (priority 2009, published 2011).

Data set [1] is described as follows: Pharmacokinetics of Compound 141 in male Wistar rats, intravenous and oral. The data set is classed as in vivo. Conditions: for MRT last: read-out: MRT(0-t); for MRT inf: read-out: MRT(0-∞). On the procedure:
For intravenous administration, blood samples were collected via retro-orbital puncture into heparinized tubes at pre-dose and 0.083, 0.25, 0.5, 1, 2, 6, 8, and 24 hours (hr) post-dose.
For oral administration, blood samples were collected at following time points: 0, 0.167, 0.417, 0.75, 1, 2, 4, 6, 8, and 24 hr. After sample collection, plasma samples were stored at −20° C. until bioanalysis. Concentrations of 72(+) and 72(−) in plasma samples were determined using a high performance liquid chromatography/mass spectrometry (HPLC/MS/MS) method.
*F(%)=(Doseiv×AUCoral(0-t))/(Doseoral×AUCiv(0-t))×100%. […]
The pharmacokinetic profile and bioavailability of Compound 141 (phosphate salt of Compound 127) in male Wistar rats following single intravenous (iv) and oral administration (p.o.) were measured according to the procedures of Example 4 and are summarized in Table 11. The pharmacokinetic profile of Compound 162 in male Golden Syrian masters following oral administration (pox) is summarized in Table 12.

For data set [2], the system named is LDLR mRNA expression in HepG2 cells. The data set can be described thus: LDLR mRNA expression in HepG2 cells, quantitative real-time RT-PCR (Example 12). The format is cell-based, human. Particulars: Homo sapiens, 24 hours; for fold induction at 10 µM: read-out: Activity on LDLR mRNA at 10 uM (fold of control); for fold induction at 40 µM: read-out: Activity on LDLR mRNA at 40 uM (fold of control). As for the experimental part:
(§1) The effects of compounds on the mRNA expressions of LDLR and PCSK9 were examined using quantitative real-time RT-PCR assays. HepG2 cells were treated with various compounds at 10 and 40 uM concentrations for 24 hours. Total RNA was isolated and […] was used to generate cDNA in a reaction containing random primers and M-MLV at 37° C. for 1 h in a volume of 25 μL. Real-time PCR was performed on the cDNA using MCEP REALPLEX 2 SYSTEM (Eppendorf) and Universal MasterMix (Applied Biosystems). Human LDLR, PCSK9, and GAPDH Pre-Developed TaqMan Assay Reagents (Applied Biosystems) were used to assess the levels of mRNA expressions in HepG2. The levels of LDLR and PCSK9 mRNA were normalized to that of GAPDH. Each RNA samples was assayed in duplicate. The fold activity was calculated by dividing mRNA abundance in compound treated cells with that of control.
On the technique in general: In qPCR the cycle at which signal appears reflects the starting amount.

Data set [3] deals with LDL ligand uptake activity in HepG2 cells. The data set can be described thus: DiI-LDL uptake in HepG2 cells (Example 12). The data set is classed as cell-based, human. As for the experimental part:
The combined beneficial effects of these novel compounds on elevation of LDLR mRNA levels likely through the mechanism of mRNA stabilization and their inhibitory activity towards PCSK9, the secreted protease that degrades LDLR protein, result in strong increases in LDL ligand uptake activity through increased receptor surface abundance. […] Briefly, HepG2 cells (2×10^5 cells/well) in 24-well culture plates were treated with various compounds at 10 and 40 uM concentrations for 20 hours. The fluorescent 1.1′-dioctadecyl-3,3,3′,3′-tetramethylindocarbocyanin perchlorate (DiI-LDL) (Biomedical Technologies, Stoughton, Mass.) at a concentration of 2 μg/ml was added to cells at the end of treatment. After 4 hours, the medium was removed; cells were washed with cold PBS, and were examined immediately under a fluorescent microscope (Nikon) at 200× amplification. The fluorescent intensity in compound-treated cells was compared to that in untreated control cells. […]

The subject of data set [4] is PCSK9 mRNA expression in HepG2 cells. The data set can be described thus: PCSK9 mRNA expression in HepG2 cells, quantitative real-time RT-PCR (Example 12). The format is cell-based, human. Particulars: 24 hours. On the procedure: as §1
The mark [5] stands for this setting: Wistar, rat, plasma, male rats, IV (2 mg/kg), mean.
Setting [6] is: Wistar, rat, plasma, male rats, PO (10 mg/kg), mean.
[7] abbreviates: 40 uM, 20 hours (second symbol of cell).
[8] abbreviates: 10 uM, 20 hours (first symbol of cell).

Where a name gives a salt, the structure may show the parent alone. Read-outs that look alike come from different tables or passages of the source.

The term AUC(0-inf) denotes total exposure, with the tail of the curve extrapolated. What is called AUC(0-t) is exposure summed from dosing to a finite time, without extrapolation to infinity. Low readings indicate less exposure, high ones more exposure. By Cmax is commonly meant the maximum level reached in the sampled fluid or tissue. The term Tmax denotes the time from dosing to the highest level.

Regarding `COc1cc2c(cc1OC)C1Cc3ccc(OC)c(OS(=O)(=O)c4cccc(F)c4)c3CN1CC2` (racemic) [Compound 141, 2,3,10-Trimethoxy-5,6,7,8,13,13a-hexahydroisoquinolino[2,1-b]isoquinolin-9-yl 3-fluorobenzenesulfonate phosphate Salt], in data set [1] (setting [5]), the AUC(0-inf) turned out to be 1080 ng·h/mL, the AUC(0-t) stood at 1070 ng·h/mL, the maximum concentration (Cmax) was 1550 ng/mL and the Tmax worked out at 0.083 h. In addition, in data set [1] (setting [5]), the MRT last was 1.46 h and the MRT inf worked out at 1.62 h. In data set [1] (Wistar, rat, plasma, male rats, IV (2 mg/kg), mean, read-out: Vz), the Vd worked out at 8.31 L/kg. Besides, in data set [1] (setting [6]), the AUC(0-inf) came out at 3380 ng·h/mL, the AUC(0-t) is 3360 ng·h/mL, the highest level (Cmax) was 826 ng/mL and the Tmax is 0.33 h. Moreover, in data set [1] (setting [6]), the MRT last came to 4.25 h and the MRT inf stood at 4.44 h. Also, the “pharmacokinetic properties and bioavailability, in words” value in data set [1] (male Wistar rats, iv and p.o.) was “excellent pharmacokinetic properties and good bioavailability”. In data set [1] (male rats, IV (2 mg/kg), mean), this compound had a CLz of 31.2 mL/min/kg and a t1/2z of 3.16 h. Also, in data set [1] (male rats, PO (10 mg/kg) vs IV (2 mg/kg), mean), the “F*” value was found to be 62.75%. Moreover, in data set [1] (male rats, PO (10 mg/kg), mean), the t1/2z was 3.62 h.

`COc1cc2c(cc1C(=O)O)C1Cc3ccc(OC)c(OS(=O)(=O)c4ccccc4)c3CN1CC2` (centres unmarked) [Compound 135, 3,10-Dimethoxy-9-(phenylsulfonyloxy)-5,6,7,8,13,13a-hexahydro isoquinolino[3,2-a]isoquinoline-2-carboxylic acid]: in data set [2], the fold induction at 10 µM is 1.72 ± 0.13 and the fold induction at 40 µM was determined as 1.86. The “Activity in LDL uptake (relative to control)” value in data set [3] (setting [7]) is “+”. In data set [4], the “PCSK9 mRNA level at 10 uM (fold of control)” value is 0.97 ± 0.04 fold of control and the “Activity on PCSK9 mRNA reduction at 40 uM (fold of control)” value is recorded as 1.10 ± 0.14 fold of control.

`COc1cc2c(cc1OC)C1C(C)c3ccc(OC)c(OS(=O)(=O)c4ccccc4)c3CN1CC2` (centres unmarked) [Compound 139, 2,3,10-Trimethoxy-13-methyl-5,6,7,8,13,13a-hexahydro isoquinolino[2,1-b]isoquinolin-9-yl benzenesulfonate]: in data set [2], the fold induction at 10 µM came to 11.5 ± 1.29 and the fold induction at 40 µM worked out at 3.02 ± 0.34. In addition, in data set [3] (setting [8]), the “Activity in LDL uptake (relative to control)” value was “++/++”. For the same compound, the “Activity in LDL uptake (relative to control)” value in data set [3] (setting [7]) is on record as “++/++”. Moreover, in data set [4], the “PCSK9 mRNA level at 10 uM (fold of control)” value is recorded as 0.46 ± 0.04 fold of control and the “Activity on PCSK9 mRNA reduction at 40 uM (fold of control)” value is on record as 0.27 ± 0.02 fold of control.

Consider `COC(=O)c1cc2c(cc1OC)CCN1Cc3c(ccc(OC)c3OS(=O)(=O)c3ccccc3)CC21` (centres unmarked) [Compound 131, Methyl 3,10-dimethoxy-9-(phenylsulfonyloxy)-5,6,7,8,13,13a-hexahydroisoquinolino[3,2-a]isoquinoline-2-carboxylate], for which, in data set [2], the fold induction at 10 µM came to 0.67 ± 0.05 and the fold induction at 40 µM was determined as 2.25 ± 0.13. Moreover, the “Activity in LDL uptake (relative to control)” value in data set [3] (setting [8]) is “+/+”. For the same compound, in data set [3] (setting [7]), the “Activity in LDL uptake (relative to control)” value was “+/+”. Also, in data set [4], the “PCSK9 mRNA level at 10 uM (fold of control)” value was 0.87 ± 0.04 fold of control and the “Activity on PCSK9 mRNA reduction at 40 uM (fold of control)” value was 0.72 ± 0.10 fold of control.

As for `CCOc1ccc2c(c1)CCN1Cc3c(ccc(OC)c3OS(=O)(=O)c3ccccc3)CC21` (centres unmarked) [Compound 133, 3-Ethoxy-10-methoxy-5,6,7,8,13,13a-hexahydroisoquinolino[2,1-b]isoquinolin-9-yl benzenesulfonate], in data set [2], the fold induction at 10 µM worked out at 4.92 and the fold induction at 40 µM was 6.61 ± 0.16. In data set [3] (setting [8]), the “Activity in LDL uptake (relative to control)” value was “++”. The “Activity in LDL uptake (relative to control)” value in data set [3] (setting [7]) was “+”. Further, in data set [4], the “PCSK9 mRNA level at 10 uM (fold of control)” value was 1.04 ± 0.08 fold of control and the “Activity on PCSK9 mRNA reduction at 40 uM (fold of control)” value is on record as 0.49 ± 0.01 fold of control.

As to `COc1cc2c(cc1OCCO)CCN1Cc3c(ccc(OC)c3OS(=O)(=O)c3ccccc3)CC21` (centres unmarked) [Compound 138, 3-(2-Hydroxyethoxy)-2,10-dimethoxy-5,6,7,8,13,13a-hexahydroisoquinolino[2,1-b]isoquinolin-9-yl benzenesulfonate], in data set [2], the fold induction at 10 µM amounted to 1.6 ± 0.29 and the fold induction at 40 µM came out at 2.45 ± 0.2. Moreover, the “Activity in LDL uptake (relative to control)” value in data set [3] (setting [8]) is “+”. For the same compound, the “Activity in LDL uptake (relative to control)” value in data set [3] (setting [7]) is “+++”. Further, in data set [4], the “PCSK9 mRNA level at 10 uM (fold of control)” value is recorded as 0.63 ± 0.14 fold of control and the “Activity on PCSK9 mRNA reduction at 40 uM (fold of control)” value was 0.35 ± 0.02 fold of control.

In the case of `COc1ccc2c(c1OS(=O)(=O)c1ccccc1)CN1CCc3cc(OCCO)ccc3C1C2` (centres unmarked) [Compound 142, 3-(2-Hydroxyethoxy)-10-methoxy-5,6,7,8,13,13a-hexahydroisoquinolino[2,1-b]isoquinolin-9-yl benzenesulfonate], in data set [2], the fold induction at 10 µM turned out to be 2.64 ± 0.01 and the fold induction at 40 µM is 13 ± 1.96. The “Activity in LDL uptake (relative to control)” value in data set [3] (setting [8]) is on record as “+”. Moreover, the “Activity in LDL uptake (relative to control)” value in data set [3] (setting [7]) is “++”. Also, in data set [4], the “PCSK9 mRNA level at 10 uM (fold of control)” value is 0.62 ± 0.07 fold of control and the “Activity on PCSK9 mRNA reduction at 40 uM (fold of control)” value was 0.52 ± 0.02 fold of control.

For `COc1ccc2c(c1OS(=O)(=O)c1cccc(F)c1)CN1CCc3cc4c(cc3C1C2)OCCO4` (centres unmarked) [Compound 129, 11-Methoxy-6,7,8,9,14,14a-hexahydro-2H,3H-1,4-dioxano[5,6-g]isoquinolino[3,2-a]isoquinolin-10-yl 3-fluorobenzenesulfonate], in data set [2], the fold induction at 10 µM stood at 2.49 ± 0.18 and the fold induction at 40 µM worked out at 1.99 ± 0.13. In data set [3] (setting [8]), the “Activity in LDL uptake (relative to control)” value is reported as “+”. Besides, the “Activity in LDL uptake (relative to control)” value in data set [3] (setting [7]) is “++”. Further, in data set [4], the “PCSK9 mRNA level at 10 uM (fold of control)” value is on record as 1.57 ± 0.07 fold of control and the “Activity on PCSK9 mRNA reduction at 40 uM (fold of control)” value is recorded as 1.68 ± 0.41 fold of control.

On to `COc1cc2c(cc1OC)C1Cc3ccc(OC)c(OS(=O)(=O)c4cccc(F)c4)c3CN1CC2` (centres unmarked) [Compound 127, 2,3,10-Trimethoxy-5,6,7,8,13,13a-hexahydroisoquinolino[2,1-b]isoquinolin-9-yl 3-fluorobenzenesulfonate], for which, in data set [2], the fold induction at 10 µM is 1.8 ± 0.13 and the fold induction at 40 µM was determined as 2.38 ± 0.38. In addition, in data set [3] (setting [8]), the “Activity in LDL uptake (relative to control)” value is “+++/+++”. For the same compound, in data set [3] (setting [7]), the “Activity in LDL uptake (relative to control)” value was “+++/+++”. In addition, in data set [4], the “PCSK9 mRNA level at 10 uM (fold of control)” value is reported as 0.197 ± 0.014 fold of control and the “Activity on PCSK9 mRNA reduction at 40 uM (fold of control)” value is given as 0.192 ± 0.016 fold of control. The “PCSK9 mRNA expression, in words” value in data set [4] (10 and 40 uM) was “strongly inhibits PCSK9 expression”.

Consider `COc1cc2c(cc1OCCO)C1Cc3ccc(OC)c(OS(=O)(=O)c4ccccc4)c3CN1CC2` (centres unmarked) [Compound 143, 2-(2-hydroxyethoxy)-3,10-dimethoxy-5,6,7,8,13,13a-hexahydroisoquinolino[2,1-b]isoquinolin-9-yl benzenesulfonate], for which, in data set [2], the fold induction at 10 µM came out at 1.87 ± 0.03 and the fold induction at 40 µM amounted to 15 ± 1.68. In addition, the “Activity in LDL uptake (relative to control)” value in data set [3] (setting [7]) was “++”. For the same compound, in data set [4], the “PCSK9 mRNA level at 10 uM (fold of control)” value is 1.09 ± 0.09 fold of control and the “Activity on PCSK9 mRNA reduction at 40 uM (fold of control)” value was 0.48 ± 0.06 fold of control.
